In BindingDB's records for patent US11859014 (Emory University, 2024):

Experiments:
Genome polyprotein [1] = target: Genome polyprotein (Norovirus Hu/GII.P4_GII.4/Minerva/2006/USA, UniProt A0A0K2E2J2); assay: Fret Assay
Method: (§1) The ability of these compounds to inhibit the NoV, specifically Minerva virus protease catalytic Cys139 covalently (IC50 and Ki) was determined with an enzyme kinetic assay. NoV strains, specifically GII.4 such as the Minerva virus are responsible for causing the majority (80%) of infections in humans. The activity of the inhibitors was evaluated by monitoring the cleavage of a FRET substrate every one minute for 20 minutes (excitation/emission: 488/520 nm) using a SpectraMax M5 microplate reader (Molecular Devices, Sunnyvale CA). Serial dilutions of each inhibitor were incubated with enzyme for 90 minutes at 37° C. before addition of the FRET substrate to ensure complete inactivation. Commercially available protease inhibitors chymostatin and rupintrivir were used as controls.

Genome polyprotein [2] = target: Genome polyprotein (Hu/NV/NV/1968/US, UniProt Q83883); assay: Fret Assay
Genome polyprotein (Hu/NV/NV/1968/US, UniProt Q83883), sequence (Q83883 whole entry): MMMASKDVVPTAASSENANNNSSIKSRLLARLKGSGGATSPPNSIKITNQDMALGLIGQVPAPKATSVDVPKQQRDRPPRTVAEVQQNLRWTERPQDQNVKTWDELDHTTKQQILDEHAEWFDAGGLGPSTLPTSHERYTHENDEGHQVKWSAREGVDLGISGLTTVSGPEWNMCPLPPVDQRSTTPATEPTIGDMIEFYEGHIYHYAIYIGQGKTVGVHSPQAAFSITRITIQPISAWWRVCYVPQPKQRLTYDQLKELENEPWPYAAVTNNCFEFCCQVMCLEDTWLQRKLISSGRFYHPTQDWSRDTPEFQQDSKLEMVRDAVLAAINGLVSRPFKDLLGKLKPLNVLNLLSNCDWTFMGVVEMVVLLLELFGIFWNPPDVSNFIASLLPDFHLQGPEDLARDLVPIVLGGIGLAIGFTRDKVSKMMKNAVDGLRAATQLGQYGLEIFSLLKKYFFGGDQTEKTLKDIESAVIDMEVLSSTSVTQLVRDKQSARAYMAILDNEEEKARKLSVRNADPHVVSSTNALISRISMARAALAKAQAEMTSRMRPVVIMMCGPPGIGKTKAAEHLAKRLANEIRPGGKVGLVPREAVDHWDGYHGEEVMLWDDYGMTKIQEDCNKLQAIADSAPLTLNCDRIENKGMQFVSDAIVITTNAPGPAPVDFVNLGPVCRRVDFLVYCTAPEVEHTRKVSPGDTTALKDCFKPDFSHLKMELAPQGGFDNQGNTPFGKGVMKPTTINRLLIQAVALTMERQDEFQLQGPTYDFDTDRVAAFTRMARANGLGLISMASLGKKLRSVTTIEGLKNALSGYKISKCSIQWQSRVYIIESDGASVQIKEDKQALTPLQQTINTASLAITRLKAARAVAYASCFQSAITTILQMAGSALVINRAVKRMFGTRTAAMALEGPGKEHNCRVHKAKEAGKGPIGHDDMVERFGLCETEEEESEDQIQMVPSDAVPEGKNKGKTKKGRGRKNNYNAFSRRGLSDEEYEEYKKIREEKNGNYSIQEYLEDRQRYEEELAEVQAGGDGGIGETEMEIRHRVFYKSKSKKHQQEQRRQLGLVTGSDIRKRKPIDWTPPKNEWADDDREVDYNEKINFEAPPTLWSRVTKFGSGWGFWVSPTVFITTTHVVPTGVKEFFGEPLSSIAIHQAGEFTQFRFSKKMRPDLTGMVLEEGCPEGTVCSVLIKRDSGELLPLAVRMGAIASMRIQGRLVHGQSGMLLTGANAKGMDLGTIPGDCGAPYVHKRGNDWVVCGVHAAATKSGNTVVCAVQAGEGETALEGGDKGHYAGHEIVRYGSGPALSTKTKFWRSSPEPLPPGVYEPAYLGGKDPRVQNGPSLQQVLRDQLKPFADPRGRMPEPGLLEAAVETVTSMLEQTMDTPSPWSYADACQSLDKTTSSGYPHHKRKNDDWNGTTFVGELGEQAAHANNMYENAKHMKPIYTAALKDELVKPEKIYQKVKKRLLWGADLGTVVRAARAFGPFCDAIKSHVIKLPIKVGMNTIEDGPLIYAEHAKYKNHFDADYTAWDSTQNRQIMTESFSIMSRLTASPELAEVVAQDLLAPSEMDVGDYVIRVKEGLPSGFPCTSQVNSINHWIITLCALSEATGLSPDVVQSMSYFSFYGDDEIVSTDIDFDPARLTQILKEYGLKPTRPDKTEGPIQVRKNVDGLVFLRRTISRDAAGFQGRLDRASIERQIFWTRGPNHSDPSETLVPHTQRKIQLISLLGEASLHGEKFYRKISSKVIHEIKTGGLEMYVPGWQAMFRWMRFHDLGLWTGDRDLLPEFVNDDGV
Method: as §1

Genome polyprotein (Norovirus Hu/GII.P4_GII.4/Minerva/2006/USA, UniProt A0A0K2E2J2), sequence (A0A0K2E2J2 whole entry): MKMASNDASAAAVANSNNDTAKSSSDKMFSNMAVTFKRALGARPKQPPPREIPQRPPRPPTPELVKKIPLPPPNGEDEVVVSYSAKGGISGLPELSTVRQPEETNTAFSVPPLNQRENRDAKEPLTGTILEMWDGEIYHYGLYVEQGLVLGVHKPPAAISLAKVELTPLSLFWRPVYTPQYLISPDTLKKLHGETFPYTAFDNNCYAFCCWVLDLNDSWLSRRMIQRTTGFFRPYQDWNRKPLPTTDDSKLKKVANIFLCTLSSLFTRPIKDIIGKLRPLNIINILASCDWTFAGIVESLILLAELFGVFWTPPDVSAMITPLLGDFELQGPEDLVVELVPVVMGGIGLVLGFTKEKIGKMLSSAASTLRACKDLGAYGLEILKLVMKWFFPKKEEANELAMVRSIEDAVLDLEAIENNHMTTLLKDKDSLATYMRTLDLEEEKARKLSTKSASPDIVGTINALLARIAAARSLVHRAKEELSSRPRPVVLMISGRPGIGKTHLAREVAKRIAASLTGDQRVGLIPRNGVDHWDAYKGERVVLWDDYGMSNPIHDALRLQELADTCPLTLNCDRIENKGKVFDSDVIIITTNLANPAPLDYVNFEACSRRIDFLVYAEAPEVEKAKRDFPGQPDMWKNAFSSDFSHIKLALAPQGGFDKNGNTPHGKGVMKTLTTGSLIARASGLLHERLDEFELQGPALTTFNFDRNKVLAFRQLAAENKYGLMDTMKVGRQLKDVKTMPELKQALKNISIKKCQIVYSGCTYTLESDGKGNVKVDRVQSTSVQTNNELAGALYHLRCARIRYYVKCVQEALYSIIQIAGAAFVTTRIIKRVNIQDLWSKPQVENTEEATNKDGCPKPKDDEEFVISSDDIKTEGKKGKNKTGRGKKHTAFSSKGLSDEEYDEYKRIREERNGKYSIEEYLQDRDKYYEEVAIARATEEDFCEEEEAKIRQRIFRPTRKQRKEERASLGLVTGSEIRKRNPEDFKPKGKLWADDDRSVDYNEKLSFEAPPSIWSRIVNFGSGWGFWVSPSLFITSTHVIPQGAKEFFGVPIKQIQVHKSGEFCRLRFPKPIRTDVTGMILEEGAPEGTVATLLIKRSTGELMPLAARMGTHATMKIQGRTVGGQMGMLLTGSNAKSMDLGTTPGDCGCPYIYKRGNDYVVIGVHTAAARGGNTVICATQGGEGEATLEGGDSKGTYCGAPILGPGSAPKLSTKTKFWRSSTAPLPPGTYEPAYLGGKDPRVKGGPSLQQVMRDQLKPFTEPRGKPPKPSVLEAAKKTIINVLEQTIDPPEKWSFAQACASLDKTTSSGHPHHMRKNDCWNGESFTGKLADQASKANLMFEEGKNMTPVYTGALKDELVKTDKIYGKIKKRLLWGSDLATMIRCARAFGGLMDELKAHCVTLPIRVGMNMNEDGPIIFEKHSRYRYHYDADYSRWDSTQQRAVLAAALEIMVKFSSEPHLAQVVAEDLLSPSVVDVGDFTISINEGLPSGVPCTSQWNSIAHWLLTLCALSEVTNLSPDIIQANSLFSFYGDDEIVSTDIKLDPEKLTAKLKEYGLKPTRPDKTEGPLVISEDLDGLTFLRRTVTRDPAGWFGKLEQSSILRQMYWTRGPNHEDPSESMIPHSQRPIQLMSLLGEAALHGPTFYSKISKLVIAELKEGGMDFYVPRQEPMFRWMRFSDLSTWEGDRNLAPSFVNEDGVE

Row | SMILES | Ki (Genome polyprotein [1]) | IC50 (Genome polyprotein [2]) | Ki (Genome polyprotein [2]) | IC50 (Genome polyprotein [1])
1 | CC(C)C[C@H](NC(=O)[C@H](Cc1cccc2ccccc12)NC(=O)OCc1ccccc1)C(=O)N[C@H](/C=C(\C#N)C(N)=O)C[C@@H]1CCCNC1=O [US11859014, Compound 36] | 3600 nM | – | – | –
2 | CC(C)C[C@H](NC(=O)[C@H](Cc1ccc(O)cc1)NC(=O)OCc1ccccc1)C(=O)N[C@H](C=O)C[C@@H]1CCCNC1=O [US11859014, Compound 11] | 427 nM | 44 nM | 123 nM | –
3 | CCOC(=O)/C=C/[C@H](C[C@@H]1CCNC1=O)NC(=O)[C@@H](CC(=O)[C@@H](NC(=O)c1cc(C)on1)C(C)C)Cc1ccc(F)cc1 [US11859014, Compound rupintrivir] | 8200 nM | – | – | 23600 nM
4 | CC(C)C[C@H](NC(=O)[C@H](Cc1cccc2ccccc12)NC(=O)c1cnccn1)C(=O)N[C@H](C=O)C[C@@H]1CCNC1=O [US11859014, Compound 29] | 670 nM | 112 nM | 350 nM | –
5 | O=C[C@H](C[C@@H]1CCCNC1=O)NC(=O)[C@H](Cc1ccccc1)NC(=O)[C@H](Cc1cccc2ccccc12)NC(=O)OCc1ccccc1 [US11859014, Compound 83] | – | – | – | 482 nM
6 | CC(C)C[C@H](NC(=O)[C@H](Cc1ccc(F)cc1)NC(=O)OCc1ccccc1)C(=O)N[C@H](C=O)C[C@@H]1CCCNC1=O [US11859014, Compound 35] | 858 nM | – | – | 167 nM
7 | CC(C)C[C@H](NC(=O)[C@H](Cc1cccc2ccccc12)NC(=O)OCc1ccccc1)C(=O)N[C@H](C=O)C[C@@H]1CCCNC1=O [US11859014, Compound 19] | 1190 nM | 80 nM | 155 nM | –
8 | CC(C)C[C@H](NC(=O)[C@H](Cc1cccc2ccccc12)NC(=O)c1cnccn1)C(=O)N[C@H](C=O)C[C@@H]1CCCNC1=O [US11859014, Compound 23] | – | 96 nM | 528 nM | 204 nM
